Assay results reported in patent US8299059B2, “Crystalline compound and a process for its preparation” (Eli Lilly and Company, priority 2009, dated 2012).

Key:
Type in all cases: physicochemical
[1] = Determination of specific surface area (BET isotherm, nitrogen)
Description: Specific surface area is determined from BET isotherm measurements using nitrogen as the absorbed gas.

[2] = Determination of particle flowability (Schulze shear cell tester); settings: flow factor coefficient, pre-consolidation pressure 2000 Pa
Description: Particle flowability is characterized using a Schulze shear cell tester with a pre-consolidation pressure of 2000 Pa. The powder sample is contained in an annular shear cell. A vertically acting force is applied to the lid of the flow cell allowing an adjustable normal stress to be applied. The shear cell is slowly rotated and the torque necessary to prevent the cover from rotating is recorded. The measured shear stress that is recorded is the shear stress required for the powder to move or flow against itself. From a plot of the shear stress versus normal force, the flowability or FFC is determined

[3] = Determination of particle size distribution by laser diffraction; settings: for x10 / x90: cumulative volume distribution (undersized); for x50: median particle size
Description: Laser diffraction particle size analysis is employed to determine the x10, x50 and x90 values. The procedure uses Fraunhofer laser diffraction theory to calculate the particle size distribution. The analysis is performed with a Malvern Mastersizer 2000 equipped with a Hydro 2000S wet module. A filtered (0.22 μm) solution composed of 0.35% (v/v) sorbitan monooleate (SPAN® 80) in hexanes and saturated with semagacestat is used as the dispersant. The parameters used in the analysis are as follows: sample refractive index—1.555, sample absorption—0.1, dispersant refractive index—1.37, result calculation model—General purpose, normal sensitivity, sample measurement time—12 seconds, background measurement time—12 seconds, and stirrer/pump speed—2700 rpm. A dry sample is added to the Hydro 2000S wet module with sonication on at 100%, until the obscuration is between 10 and 20%. The sample is sonicated for 12 s and stirred for a total of 2 min (including sonication) prior to the analysis. Two separate assays are typically run; the average values are reported.

| SSA [1] | FFC [2] | x10 [3] | x90 [3] | x50 [3] | Compound |
| --- | --- | --- | --- | --- | --- |
| 1.1 m^2/g | 2.0 | 3.5 μm | 54 μm | 17 μm | CC(C)[C@H](O)C(=O)N[C@@H](C)C(=O)N[C@@H]1C(=O)N(C)CCc2ccccc21 [Method 2, Crystalline (2S)-2-hydroxy-3-methyl-N-[(1S)-1-methyl-2-oxo-2-[[(1S)-2,3,4,5-tetrahydro-3-methyl-2-oxo-1H-3-benzazepin-1-yl]amino]ethyl]-butanamide anhydrate Form II] |
| 0.4 m^2/g | 3.8 | 14 μm | 128 μm | 59 μm | CC(C)[C@H](O)C(=O)N[C@@H](C)C(=O)N[C@@H]1C(=O)N(C)CCc2ccccc21 [Example 1, Crystalline (2S)-2-hydroxy-3-methyl-N-[(1S)-1-methyl-2-oxo-2-[[(1S)-2,3,4,5-tetrahydro-3-methyl-2-oxo-1H-3-benzazepin-1-yl]amino]ethyl]-butanamide anhydrate Form II] |
